Experimental data published in patent US20140105871A1, “Use Of Mesenchymal Stem Cells For The Improvement Of Affective And Cognitive Function” (priority 2011, published 2014).

How the values were obtained:
[1] = test system: cell suspension of rat neonatal brain tissue; experiment: Neurosphere growth in conditioned medium of pre-treated MSC cultures (neurogenic potential in vitro); assay type: cell-based
Procedure: 70-80% confluent cultures of bone marrow derived MSCs were cultured in vitro in Dulbecco's modified Eagle's medium (DMEM) without Fetal Bovine Serum (FBS) with and supplemented with the addition of one of the following compounds: None, LiCl (2 mM), PACAP27 (20 nM) or DHEA (1 mM). After 3 days medium was changed with fresh ingredients and cultures were allowed to grow for an additional 24 hours. After 24 hours plates were washed twice with PBS and conditioning medium (C.M.) containing none of the above compounds was placed for additional 24 hours. Conditioned medium harvested from these cultures after 24 hours was filtered in 0.2 um filter supplemented with 1% B27 nutrients mix and used as culture medium for a cell suspension of rat neonatal brain tissue in 24 well plates (10^4 cells/well). […]
The number of developing neurospheres in each conditioned medium type was counted after 5 days of culture and provided an indication of the neurogenic potential of the MSCs culture from which the CM was harvested. […]
The number of developing neurospheres in each conditioned medium type was counted and provided an indication of the neurogenic potential of the MSCs culture from which the C.M. was harvested.

[2] = test system: murine model of schizophrenia (ketamine-injected female ICR pups); experiment: Pre-pulse inhibition (PPI) in ketamine-injected pups, murine model of schizophrenia; assay type: in vivo, mouse; settings: Example 6, intraperitoneal 12 days course
Procedure: Prepulse inhibition (PPI) test was conducted in startle device (Hamilton Kinder, Poway, Calif.) that consists of a plexiglas cylinder (10×10×5 cm) adapted for mouse size in order to restrict a mouse to stand up on its hind legs and enclosed in a ventilated sound attenuated compartment with a high-frequency loudspeaker producing all acoustic stimuli. The background noise was 65 dB. Movements within the cylinder were detected and transduced by a piezoelectric platform and recorded on a computer. Each trial was initiated with 5 minutes acclimation period followed by five startle pulse alone (ASR) successive testing trials and finishing with final five startle pulses alone. Auditory testing included startle pulse alone (ASR, 120 dB/40 msec) plus three different prepulse sessions in which either 20-msec-long 70, 74 and 82 dB stimuli were preceded the 120 dB pulse by 100 msec, with the alternate background noise measurement set as the baseline movements in the cylinder. All trials followed in a pseudo-random order and the average inter-trial interval (ITI) was […]. PPI was defined as the percentage of the decreased in the ratio between the startle magnitude in the presence of the prepulse and the magnitude in the absence of the prepulse (100−(100× magnitude on prepulse+pulse trial/magnitude on pulse trial)). […]

[Cl-].[Li+] [LiCl, lithium chloride]
neurogenic activity of the MSCs, in vitro ([1]; incubation of MSCs in culture with the agent): enhanced the neurogenic activity

HSDGIFTDSYSRYRKQMAVKKYLAAVL [PACAP (P27), fragment of 27 amino acid residues corresponding to amino acids 132-158 of human PACAP]
number of developing neurospheres ([1]; C.M. of MSC cultures treated with the agent (PACAP27 20 nM, DHEA 1 mM) vs non-treated cultures (C.M. alone), FIG. 2): clear advantage

CN1CCN(C2=Nc3cc(Cl)ccc3Nc3ccccc32)CC1 [Clozapine, clozapine]
PPI vs Ket control ([2]; 2.5 months after the treatment course ended, FIG. 17): no significant effect
PPI vs Ket control ([2]; 6 weeks after the course ended, FIG. 16): no significant effect
